Experimental data published in patent US20120100616A1, “METHOD OF DOUBLE CROSSOVER HOMOLOGOUS REC[…] CLOSTRIDIA” (THE UNIVERSITY OF NOTTINGHAM, priority 2009, published 2012).

Assays:
[1] = test system: C. difficile cells harbouring the codA cassette; experiment: functionality testing of codA cassette for counter selection on minimal medium with FC; format: cell-based; conditions: 100 μg/ml FC, modified minimal medium, codA cassette on pMTL960 plasmid, FIG. 4
Source text: (§1) The codA expression cassette was isolated from the vector used by Fox et al., Gene Therapy. (1996) 3:173-178 and cloned into pMTL960. This plasmid was used to test the functionality of the codA gene in E. coli and C. difficile.

[2] = test system: E. coli harbouring the codA construct; experiment: functionality testing of codA gene in E. coli with and without FC; format: cell-based; conditions: codA cassette on pMTL960 plasmid, with vs without FC
Source text: as §1

Compound: Nc1nc(=O)[nH]cc1F [FC, 5-fluorocytosine]
- growth of cells expressing codA on minimal medium containing FC [1]: did not grow
- growth of E. coli carrying the codA construct in presence of FC [2]: permitting growth in the absence of FC but not in the presence of FC
